For one assay, the target named is DNA-PK (Homo sapiens (Human), UniProt P78527). The experiment in a line: DNA-PK Enzyme-Linked Immunosorbent Assay (phosphorylation of GST-p53 (1-101) peptide). It counts as biochemical. To be noted: ELISA, 20 μM ATP. The gist of the method: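 Inhibition measured by 450 nm absorbance after HRP/TMB detection of phospho-Ser15 on immobilized GST-p53 (1-101). The kinase reaction used 0.1 μg/mL DNA-PK and 20 μM ATP, 1 h at 25 °C. Ten 3-fold compound dilutions, top final concentration 100 nM.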
On the technique in general: ELISA stands for enzyme-linked immunosorbent assay.

The target in a further assay is ATM (Homo sapiens (Human), UniProt Q13315). In words: ATM in Cell Western Assay (pKAP1 in etoposide-treated MCF-7 cells). In kind it is cell-based. To be noted: pKAP1 in etoposide-treated MCF-7 cells. The gist of the method:
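After paraformaldehyde fixation and Triton X-100 permeabilization, immunostained plates were read by infrared scanning (ODYSSEY CLx). Compound was given as 10 doses, 3-fold dilutions from a 1 μM final top concentration.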

In general, IC50 refers to the point on the concentration scale where inhibition reaches its midpoint. The low end stands for inhibition by little substance, the high end for a need for much substance.

SMILES strings stand for the structures. Where a name gives a salt, the structure may show the parent alone.

Chain of ATM (Q13315 whole entry): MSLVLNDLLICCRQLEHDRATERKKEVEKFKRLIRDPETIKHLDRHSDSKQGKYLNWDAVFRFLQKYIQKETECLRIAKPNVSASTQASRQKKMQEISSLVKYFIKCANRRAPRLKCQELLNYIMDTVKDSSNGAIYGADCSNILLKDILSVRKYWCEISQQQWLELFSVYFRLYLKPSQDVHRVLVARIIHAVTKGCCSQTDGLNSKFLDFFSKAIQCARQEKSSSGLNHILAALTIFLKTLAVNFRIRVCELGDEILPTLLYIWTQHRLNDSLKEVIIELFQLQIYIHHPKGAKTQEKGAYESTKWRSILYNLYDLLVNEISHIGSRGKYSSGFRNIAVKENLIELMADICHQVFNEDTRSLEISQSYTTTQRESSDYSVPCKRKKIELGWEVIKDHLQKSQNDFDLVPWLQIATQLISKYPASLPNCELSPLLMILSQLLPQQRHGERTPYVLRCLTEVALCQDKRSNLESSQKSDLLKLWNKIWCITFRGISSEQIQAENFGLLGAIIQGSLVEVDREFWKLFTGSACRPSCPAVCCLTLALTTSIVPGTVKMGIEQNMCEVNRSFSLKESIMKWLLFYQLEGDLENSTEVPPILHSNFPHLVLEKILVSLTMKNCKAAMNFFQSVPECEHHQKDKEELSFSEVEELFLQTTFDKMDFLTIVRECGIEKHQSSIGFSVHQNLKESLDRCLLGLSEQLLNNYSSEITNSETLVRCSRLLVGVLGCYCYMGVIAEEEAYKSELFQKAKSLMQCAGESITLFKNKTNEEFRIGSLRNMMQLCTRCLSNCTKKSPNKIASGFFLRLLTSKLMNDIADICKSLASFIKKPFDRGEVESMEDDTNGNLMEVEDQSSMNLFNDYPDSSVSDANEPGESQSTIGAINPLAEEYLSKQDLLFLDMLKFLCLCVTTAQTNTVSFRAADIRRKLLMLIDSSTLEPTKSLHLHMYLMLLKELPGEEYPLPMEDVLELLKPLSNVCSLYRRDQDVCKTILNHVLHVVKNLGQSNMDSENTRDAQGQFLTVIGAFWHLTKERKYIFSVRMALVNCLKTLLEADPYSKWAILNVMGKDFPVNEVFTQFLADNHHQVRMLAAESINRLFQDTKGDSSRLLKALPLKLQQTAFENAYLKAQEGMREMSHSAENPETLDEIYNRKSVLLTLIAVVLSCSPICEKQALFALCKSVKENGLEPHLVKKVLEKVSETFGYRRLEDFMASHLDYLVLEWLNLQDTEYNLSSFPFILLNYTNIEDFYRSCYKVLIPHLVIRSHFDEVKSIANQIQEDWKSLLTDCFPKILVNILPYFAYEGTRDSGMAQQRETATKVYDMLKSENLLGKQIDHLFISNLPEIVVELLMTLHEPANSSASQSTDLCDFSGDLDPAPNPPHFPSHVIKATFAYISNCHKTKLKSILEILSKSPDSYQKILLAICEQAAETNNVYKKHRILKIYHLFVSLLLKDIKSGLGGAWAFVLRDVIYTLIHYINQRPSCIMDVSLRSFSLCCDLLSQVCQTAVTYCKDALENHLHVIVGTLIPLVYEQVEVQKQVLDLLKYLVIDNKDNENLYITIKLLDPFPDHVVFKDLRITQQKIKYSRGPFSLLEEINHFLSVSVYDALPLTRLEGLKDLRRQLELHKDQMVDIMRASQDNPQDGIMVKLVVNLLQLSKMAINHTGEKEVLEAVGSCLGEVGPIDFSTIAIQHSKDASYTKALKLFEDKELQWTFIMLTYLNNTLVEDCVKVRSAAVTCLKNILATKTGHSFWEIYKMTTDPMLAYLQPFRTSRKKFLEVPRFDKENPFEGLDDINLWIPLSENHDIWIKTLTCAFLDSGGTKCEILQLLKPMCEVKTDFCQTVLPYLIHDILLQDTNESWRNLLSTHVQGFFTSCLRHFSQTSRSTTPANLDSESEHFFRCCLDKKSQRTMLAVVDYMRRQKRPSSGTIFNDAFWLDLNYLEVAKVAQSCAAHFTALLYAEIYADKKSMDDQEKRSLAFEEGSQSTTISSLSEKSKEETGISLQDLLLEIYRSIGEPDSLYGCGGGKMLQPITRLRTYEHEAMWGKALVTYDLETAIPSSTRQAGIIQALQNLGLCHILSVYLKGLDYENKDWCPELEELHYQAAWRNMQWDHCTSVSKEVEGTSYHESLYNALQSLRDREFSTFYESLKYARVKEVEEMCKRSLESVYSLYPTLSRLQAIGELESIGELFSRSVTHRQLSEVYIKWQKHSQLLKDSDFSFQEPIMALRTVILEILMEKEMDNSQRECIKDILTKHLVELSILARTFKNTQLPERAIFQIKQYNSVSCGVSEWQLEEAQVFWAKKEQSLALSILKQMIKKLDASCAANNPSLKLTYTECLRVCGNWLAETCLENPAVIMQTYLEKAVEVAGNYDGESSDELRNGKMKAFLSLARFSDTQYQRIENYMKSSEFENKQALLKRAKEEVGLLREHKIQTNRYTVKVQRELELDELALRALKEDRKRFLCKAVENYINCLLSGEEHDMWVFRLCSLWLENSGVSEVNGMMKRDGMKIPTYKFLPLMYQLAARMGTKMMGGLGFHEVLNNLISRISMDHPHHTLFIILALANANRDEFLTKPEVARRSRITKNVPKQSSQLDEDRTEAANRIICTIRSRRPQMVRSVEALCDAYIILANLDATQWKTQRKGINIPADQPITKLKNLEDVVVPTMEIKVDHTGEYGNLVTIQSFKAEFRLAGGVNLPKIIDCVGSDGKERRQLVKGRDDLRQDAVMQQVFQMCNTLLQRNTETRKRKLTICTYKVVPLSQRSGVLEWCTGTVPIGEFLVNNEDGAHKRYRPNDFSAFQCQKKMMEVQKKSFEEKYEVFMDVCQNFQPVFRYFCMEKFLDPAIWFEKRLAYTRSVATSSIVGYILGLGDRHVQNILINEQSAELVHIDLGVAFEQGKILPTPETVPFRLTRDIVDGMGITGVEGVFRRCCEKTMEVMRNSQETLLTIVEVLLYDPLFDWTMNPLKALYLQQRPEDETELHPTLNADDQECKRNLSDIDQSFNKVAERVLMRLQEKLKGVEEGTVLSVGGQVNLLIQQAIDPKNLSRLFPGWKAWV

Regarding `CO[C@H]1C[C@]2(C1)C(=O)N(C)c1cnc3cc(F)c(-c4cnc(OCCNC(C)C)c(NS(C)(=O)=O)c4)cc3c12` [Example 385, cis-N-(5-(7′-Fluoro-3-methoxy-3′-methyl-2′-oxo-2′,3′-dihydrospiro[cyclobutane-1,1′-pyrrolo[2,3-c]quinolin]-8′-yl)-2-(2-(isopropylamino)ethoxy)pyridin-3-yl)methanesulfonamide], the values for the IC50 on DNA-PK and against ATM were under 0.5 nM and 1 to 100 nM, respectively.
For `CO[C@H]1C[C@]2(C1)C(=O)N(C)c1cnc3cc(F)c(-c4cnc(OCCNC(C)C)c(NS(=O)(=O)C5CC5)c4)cc3c12` [Example 387, cis-N-(5-(7′-Fluoro-3-methoxy-3′-methyl-2′-oxo-2′,3′-dihydrospiro[cyclobutane-1,1′-pyrrolo[2,3-c]quinolin]-8′-yl)-2-(2-(isopropylamino)ethoxy)pyridin-3-yl)cyclopropanesulfonamid], in that order: 1 to 100 nM and 1 to 100 nM.
Taken in the same sequence, the figures for `CO[C@H]1C[C@@]2(C1)C(=O)N(C)c1cnc3cc(F)c(-c4cnc(OCCNC(C)C)c(NS(=O)(=O)C5CC5)c4)cc3c12` [Example 388, trans-N-{5-(7′-Fluoro-3-methoxy-3 methyl-2′-oxo-2′,3′-dihydrospiro [cyclobutane-1,1′-pyrrolo[2,3-c]quinolin]-8′-yl)-2-(2-(isopropylamino)ethoxy)pyridin-3-yl)cyclopropanesulfonamide] were 1 to 100 nM and 1 to 100 nM.
Taken in the same sequence, the figures for `CO[C@H]1C[C@]2(C1)C(=O)N(C)c1cnc3cc(F)c(-c4cnc(OCCNC(C)C)c(NS(=O)(=O)N(C)C)c4)cc3c12` [Example 389, cis-8′-{5-[(Dimethylsulfamoyl)amino]-6-{2-[(propan-2-yl)amino]ethoxy}pyridine-3-yl}-7′-fluoro-3-Methoxy-3′-methyl-2′,3′-dihydrospiro[cyclobutane-1,1′-pyrrolo[2,3-c]quinoline]-2′-one] were 1 to 100 nM and 1 to 100 nM.
Take `CO[C@H]1C[C@@]2(C1)C(=O)N(C)c1cnc3cc(F)c(-c4cnc(OCCNC(C)C)c(NS(=O)(=O)N(C)C)c4)cc3c12` [Example 390]: the IC50 at DNA-PK and against ATM was 1 to 100 nM in each case.
As for `CO[C@H]1C[C@]2(C1)C(=O)N(C)c1cnc3cc(F)c(-c4cnc(N5CCC(N6CCCCC6)CC5)c(NS(C)(=O)=O)c4)cc3c12` [Example 391, cis-N-(2-([1,4′-Bipiperidin]-1′-yl)-5-(7′-fluoro-3-methoxy-3′-methyl-2′-oxo-2′,3′-dihydrospiro[cyclobutane-1,1′-pyrrolo[2,3-c]quinolin]-8′-yl)pyridin-3-yl)methanesulfonamide], the IC50 against DNA-PK and on ATM was 1 to 100 nM in each case.
For `CO[C@H]1C[C@@]2(C1)C(=O)N(C)c1cnc3cc(F)c(-c4cnc(N5CCC(N6CCCCC6)CC5)c(NS(C)(=O)=O)c4)cc3c12` [Example 392], the IC50 against DNA-PK and against ATM was 1 to 100 nM each time.
As to `CCO[C@H]1C[C@]2(C1)C(=O)N(C)c1cnc3cc(F)c(-c4cnc(OCCNC(C)C)c(NS(C)(=O)=O)c4)cc3c12` [Example 393, cis-N-(5-(3-Ethoxy-7′-fluoro-3′-methyl-2′-oxo-2′,3′-dihydrospiro[cyclobutane-1,1′-pyrrolo[2,3-c]quinolin]-8′-yl)-2-(2-(isopropylamino)ethoxy)pyridin-3-yl) methanesulfonamide], the IC50 at DNA-PK and against ATM was 1 to 100 nM each time.
Take `CC(C)NCCOc1ncc(-c2cc3c(cc2F)ncc2c3[C@]3(C[C@H](OC(C)C)C3)C(=O)N2C)cc1NS(C)(=O)=O` [Example 395, cis-N-(5-(7′-Fluoro-3-isopropoxy-3′-methyl-2′-oxo-2′,3′-dihydrospiro[cyclobutane-1,1′-pyrrolo[2,3-c]quinolin]-8′-yl)-2-(2-(isopropylamino)ethoxy)pyridin-3-yl)methanesulfonamide]: the IC50 at DNA-PK and on ATM was 1 to 100 nM each time.
For `CC(C)NCCOc1ncc(-c2cc3c(cc2F)ncc2c3[C@]3(C[C@H](OC(C)c4ccccc4)C3)C(=O)N2C)cc1NS(C)(=O)=O` (stereo partly drawn) [Example 397, cis-N-(5-(7′-Fluoro-3′-methyl-2′-oxo-3-(1-phenylethoxy)-2′,3′-dihydrospiro[cyclobutane-1,1′-pyrrolo[2,3-c]quinolin]-8′-yl)-2-(2-(isopropylamino)ethoxy)pyridin-3-yl)methanesulfonamide], the IC50 is under 0.5 nM on DNA-PK and 1 to 100 nM against ATM.
Taken in the same sequence, the figures for `CC(C)NCCOc1ncc(-c2cc3c(cc2F)ncc2c3[C@]3(C[C@H](Oc4ccccc4)C3)C(=O)N2C)cc1NS(C)(=O)=O` [Example 400, cis-N-(5-(7′-Fluoro-3′-methyl-2′-oxo-3-phenoxy-2′,3′-dihydrospiro[cyclobutane-1,1′-pyrrolo[2,3-c]quinolin]-8′-yl)-2-(2-(isopropylamino)ethoxy)pyridin-3-yl)methanesulfonamide] were 1 to 100 nM and 0.5 to 1 nM.
For `CC(C)NCCOc1ncc(-c2cc3c(cc2F)ncc2c3[C@]3(C[C@H](Oc4ccccc4)C3)C(=O)N2C)cc1NS(=O)(=O)N(C)C` [Example 402, cis-8′-{5-[(Dimethylsulfamoyl)amino]-6-{2-[(propan-2-ylamino]ethoxy}pyridine-3-yl}-7′-fluoro-3′-methyl-3-phenoxy-2′,3′-dihydrospiro[cyclobutane-1,1′-pyrrolo[2,3-c]quinoline]-2′-one hydrochloride], in that order: 1 to 100 nM and 1 to 100 nM.
As for `COC[C@H]1C[C@]2(C1)C(=O)N(C)c1cnc3cc(F)c(-c4cnc(OCCNC(C)C)c(NS(C)(=O)=O)c4)cc3c12` [Example 404, cis-N-(5-(7′-Fluoro-3-(methoxymethyl)-3′-methyl-2′-oxo-2′,3′-dihydrospiro[cyclobutane-1,1′-pyrrolo[2,3-c]quinolin]-8′-yl)-2-(2-(isopropylamino)ethoxy)pyridin-3-yl)methanesulfonamide], the IC50 against DNA-PK lay in the range of 0.5 to 1 nM; against ATM, 1 to 100 nM.
For `CCOC[C@H]1C[C@]2(C1)C(=O)N(C)c1cnc3cc(F)c(-c4cnc(OCCNC(C)C)c(NS(C)(=O)=O)c4)cc3c12` [Example 406, cis-N-(5-(3-(Ethoxymethyl)-7′-fluoro-3′-methyl-2′-oxo-2′,3′-dihydrospiro[cyclobutane-1,1′-pyrrolo[2,3-c]quinolin]-8′-yl)-2-(2-(isopropylamino)ethoxy)pyridin-3-yl)methanesulfonamide], the IC50 against DNA-PK was in the range of 0.5 to 1 nM; at ATM, 1 to 100 nM.
Taken in the same sequence, the figures for `CC(C)NCCOc1ncc(-c2cc3c(cc2F)ncc2c3[C@]3(C[C@H](COc4ccccc4)C3)C(=O)N2C)cc1NS(C)(=O)=O` [Example 409, cis-N-(5-(7′-Fluoro-3′-methyl-2′-oxo-3-(phenoxymethyl)-2′,3′-dihydrospiro[cyclobutane-1,1′-pyrrolo[2,3-c]quinolin]-8′-yl)-2-(2-(isopropylamino)ethoxy)pyridin-3-yl)methanesulfonamide] were under 0.5 nM and 1 to 100 nM.
Taken in the same sequence, the figures for `CC(C)NCCOc1ncc(-c2cc3c(cc2F)ncc2c3[C@]3(C[C@H](COC(C)C)C3)C(=O)N2C)cc1NS(C)(=O)=O` [Example 410, cis-N-(5-(7′-Fluoro-3-(isopropoxymethyl)-3′-methyl-2′-oxo-2′,3′-dihydrospiro[cyclobutane-1,1′-pyrrolo[2,3-c]quinolin]-8′-yl)-2-(2-(isopropylamino)ethoxy)pyridin-3-yl)methanesulfonamide] were under 0.5 nM and 1 to 100 nM.
For `CC(C)NCCOc1ncc(-c2cc3c(cc2F)ncc2c3[C@]3(C[C@H](COC(C)C)C3)C(=O)N2C)cc1NS(=O)(=O)C(C)C` [Example 412, cis-N-(5-(7′-Fluoro-3-(isopropoxymethyl)-3′-methyl-2′-oxo-2′,3′-dihydrospiro[cyclobutane-1,1′-pyrrolo[2,3-c]quinolin]-8′-yl)-2-(2-(isopropylamino)ethoxy)pyridin-3-yl)propane-2-sulfonamide], in that order: 1 to 100 nM and 1 to 100 nM.
In the case of `CC(C)NCCOc1ncc(-c2cc3c(cc2F)ncc2c3[C@]3(C[C@H](c4ccccc4)C3)C(=O)N2C)cc1NS(C)(=O)=O` [Example 414, cis-N-(5-(7′-Fluoro-3′-methyl-2′-oxo-3-phenyl-2′,3′-dihydrospiro[cyclobutane-1,1′-pyrrolo[2,3-c]quinolin]-8′-yl)-2-(2-(isopropylamino)ethoxy)pyridin-3-yl)methanesulfonamide hydrochloride], the IC50 on DNA-PK and on ATM was 1 to 100 nM each time.
Take `CC(C)NCCOc1ncc(-c2cc3c(cc2F)ncc2c3[C@]3(C[C@@H](c4ccccc4)C3)C(=O)N2C)cc1NS(C)(=O)=O` [Example 415, trans-N-(5-(7′-Fluoro-3′-methyl-2′-oxo-3-phenyl-2′,3′-dihydrospiro[cyclobulane-1,1′-pyrrolo[2,3-c]quinolin]-8′-yl)-2-(2-(isopropylamino)ethoxy)pyridin-3-yl)methanesulfonamide hydrochloride]: the IC50 at DNA-PK and at ATM was 1 to 100 nM each time.
As to `CC(C)NCCOc1ncc(-c2cc3c(cc2F)ncc2c3[C@]3(C[C@H](c4ccc(Cl)cc4)C3)C(=O)N2C)cc1NS(C)(=O)=O` [Example 416, cis-N-(5-(3-(4-Chlorophenyl)-7′-fluoro-3′-methyl-2′-oxo-2′,3′-dihydrospiro[cyclobutane-1,1′-pyrrolo[2,3-c]quinolin]-8′-yl)-2-(2-(isopropylamino)ethoxy)pyridin-3-yl)methanesulfonamide], the IC50 at DNA-PK and against ATM was 1 to 100 nM in each case.

(Values after patent US12187742B2 (XRAD Therapeutics, Inc., priority 2018, dated 2025).)
